From the NIST ThermoML archive (doi:10.1016/j.jct.2013.07.003)
± gives the expanded uncertainty stated by the source.

How the values were obtained:
[1] = refractive index (Na D-line) (dimensionless); xn = mol fraction of the nth substance listed; conditions: 101 kPa, Liquid, Standard Abbe refractometry, x2 = 0
[2] = relative permittivity at various frequencies (dimensionless); xn = mol fraction of the nth substance listed; conditions: 101 kPa, Liquid, Frequency=0.1 MHz, Coaxial cylinder capacitor, x2 = 0
[3] = refractive index (Na D-line) (dimensionless); conditions: 101.33 kPa, Liquid, Standard Abbe refractometry
[4] = relative permittivity at various frequencies (dimensionless); conditions: 101 kPa, Liquid, Frequency=0.1 MHz, Coaxial cylinder capacitor
[5] = 298.2 K; 101.33 kPa; Liquid; Vibrating tube method

| SMILES | refractive index ([1]; 298.2 K) | refractive index ([1]; 303.2 K) | refractive index ([1]; 308.2 K) | refractive index ([1]; 313.2 K) | refractive index ([1]; 318.2 K) | relative permittivity ([2]; 298.2 K) | relative permittivity ([2]; 303.2 K) | relative permittivity ([2]; 308.2 K) | relative permittivity ([2]; 313.2 K) | refractive index ([3]; 298.2 K) | refractive index ([3]; 303.2 K) | refractive index ([3]; 308.2 K) | refractive index ([3]; 313.2 K) | refractive index ([3]; 318.2 K) | relative permittivity ([4]; 298.2 K) | relative permittivity ([4]; 303.2 K) | relative permittivity ([4]; 308.2 K) | relative permittivity ([4]; 313.2 K) | relative permittivity ([4]; 318.2 K) | mass density [5] | also measured |
| --- | --- | --- | --- | --- | --- | --- | --- | --- | --- | --- | --- | --- | --- | --- | --- | --- | --- | --- | --- | --- | --- |
| C1COCCO1 [1,4-dioxane] + CC(O)CCO | 1.4201 ± 0.0005 | 1.4174 ± 0.0005 | 1.4145 ± 0.0005 | 1.4118 ± 0.0005 | 1.4088 ± 0.0005 | 2.23 ± 0.02 | 2.22 ± 0.02 | 2.21 ± 0.02 | 2.2 ± 0.02 |  |  |  |  |  |  |  |  |  |  |  | relative permittivity ([2]; 318.2 K): 2.19 ± 0.02 |
| CCCCCCCCO [octan-1-ol] |  |  |  |  |  |  |  |  |  | 1.4276 ± 0.0005 | 1.4254 ± 0.0005 | 1.423 ± 0.0005 | 1.4205 ± 0.0005 | 1.4184 ± 0.0005 | 9.81 ± 0.03 | 9.38 ± 0.03 | 8.94 ± 0.03 | 8.52 ± 0.03 | 8.11 ± 0.03 | 821.69 ± 0.24 kg/m3 |  |
| CC(O)CCO (stereo not drawn) [1,3-butanediol] |  |  |  |  |  |  |  |  |  | 1.4384 ± 0.0005 | 1.4371 ± 0.0005 | 1.4356 ± 0.0005 | 1.4341 ± 0.0005 | 1.4328 ± 0.0005 | 28.52 ± 0.04 | 27.66 ± 0.04 | 26.77 ± 0.04 | 25.98 ± 0.04 | 25.22 ± 0.04 | 1001.2 ± 0.24 kg/m3 |  |
| C1COCCO1 [1,4-dioxane] |  |  |  |  |  |  |  |  |  | 1.4201 ± 0.0005 | 1.4174 ± 0.0005 | 1.4145 ± 0.0005 | 1.4118 ± 0.0005 | 1.4088 ± 0.0005 | 2.23 ± 0.02 | 2.22 ± 0.02 | 2.21 ± 0.02 | 2.2 ± 0.02 | 2.19 ± 0.02 | 1027.89 ± 0.12 kg/m3 |  |
| CCCCCCCCO [octan-1-ol] + CC(O)CCO | 1.4276 ± 0.0005 | 1.4254 ± 0.0005 | 1.423 ± 0.0005 | 1.4205 ± 0.0005 | 1.4184 ± 0.0005 | 9.81 ± 0.03 | 9.38 ± 0.03 | 8.94 ± 0.03 | 8.52 ± 0.03 |  |  |  |  |  |  |  |  |  |  |  | relative permittivity ([2]; 318.2 K): 8.11 ± 0.03 |
